Read-outs that look alike come from different tables or passages of the source.
Key:
[1] = rabbit
[2] = test system: rats with acute ischemia induced by Middle Cerebral Artery Occlusion (MCAO); assay: Example 17: acute ischemia induced by MCAO in rats; format: in vivo, rat; conditions: for infarct volume: Day 14 after MCAO, TTC staining, mean±SEM; for reduction of infarct volumes: comparators: oral 60 mg/kg bid, Edaravone 3 mg/kg i.v. q.d.
[3] = test system: rats with acute ischemia induced by Middle Cerebral Artery Occlusion (MCAO); assay: Example 15: acute ischemia induced by MCAO in rats; format: in vivo, rat; conditions: for infarct volume: Day 14 after MCAO, TTC staining, mean±SEM; for reduction of infarct volumes: comparators: oral 60 mg/kg bid, Edaravone 3 mg/kg i.v. q.d.
[4] = test system: rats with acute ischemia induced by Middle Cerebral Artery Occlusion (MCAO); assay: Example 18: acute ischemia induced by MCAO in rats; format: in vivo, rat; conditions: for infarct volume: Day 14 after MCAO, TTC staining, mean±SEM; for reduction of infarct volumes: comparators: oral 60 mg/kg bid, Edaravone 3 mg/kg i.v. q.d.
[5] = test system: rats with acute ischemia induced by Middle Cerebral Artery Occlusion (MCAO); assay: Example 16: acute ischemia induced by MCAO in rats; format: in vivo, rat; conditions: for infarct volume: Day 14 after MCAO, TTC staining, mean±SEM; for mortalities: deaths of animals in group
[6] = test system: rats with acute ischemia induced by Middle Cerebral Artery Occlusion (MCAO); assay: Example 14: acute ischemia induced by middle cerebral artery occlusion (MCAO) in rats; format: in vivo, rat
[7] = comparators: oral 60 mg/kg bid, Edaravone 3 mg/kg i.v. q.d.
[8] = high dose 60 mg/kg topical bid 14 days
[9] = high dose group compared to vehicle group
[10] = high dose groups vs vehicle group
[11] = low dose 15 mg/kg topical bid 14 days
[12] = low, middle and high dose groups, Day 5-14, vs vehicle group by t-test
[13] = middle dose 30 mg/kg topical bid 14 days

Molecule | The cumulative amount of test compounds ([1]; 1 h) [mg] | The cumulative amount of test compounds ([1]; 2 h) [mg] | The cumulative amount of test compounds ([1]; 4 h) [mg] | The cumulative amount of test compounds ([1]; 8 h) [mg] | further results
CCN(CC)CCOC(=O)c1cc(-c2ccc(F)cc2F)ccc1OC(C)=O.Cl [Compound-7, 2-(diethylamino)ethyl 2′,4′-difluoro-4-acetoxy-[1,1′-biphenyl]-3-carboxylate hydrochloride] | 0.53 | 1.07 | 2.16 | 4.33 | 
O=C(Oc1ccccc1C(=O)O)c1ccccc1O [Compound-18, 2-(2-hydroxybenzoyl)oxybenzoic acid, reference compound] | 0.000 | 0.000 | 0.001 | 0.001 | 
CC1=NN(c2ccccc2)C(=O)C1 [Edaravone, reference compound] |  |  |  |  | infarct volume ([2]; 3 mg/kg i.v. q.d. 14 days): 40.35%±2.078; reduction of infarct volumes [2]: little reduction; infarct volume ([3]; 3 mg/kg i.v. q.d. 14 days): 39.94%±2.256; reduction of infarct volumes [3]: little reduction; infarct volume ([4]; 3 mg/kg i.v. q.d. 14 days): 41.33%±2.792; reduction of infarct volumes [4]: little reduction; infarct volume ([5]; 3 mg/kg i.v. q.d. 14 days): 39.27%±2.513; reduction of infarct volumes [5, 7]: little reduction; infarct volume ([6]; 3 mg/kg i.v. q.d. 14 days, Day 14 after MCAO, TTC staining, mean±SEM): 38.07%±2.031; reduction of infarct volumes [6, 7]: little reduction
O=C(O)c1ccccc1O [Compound-6, Salicylic acid, reference compound] | 0.000 | 0.001 | 0.002 | 0.002 | infarct volume ([3]; 60 mg/kg oral bid 14 days): 37.47%±2.856; reduction of infarct volumes [3]: little reduction
Cl.O=C(Oc1ccccc1C(=O)OCC1CCCN1)c1ccccc1O (stereo not shown) [Compound-17, (pyrrolidin-2-yl)methyl 2-(2-hydroxybenzoyl)oxybenzoate hydrochloride] | 0.32 | 0.68 | 1.39 | 2.97 | 
CC(=O)Oc1ccccc1C(=O)Oc1ccccc1C(=O)OCC1CCCN1.Cl (stereo not shown) [Compound-14, (pyrrolidin-2-yl)methyl 2-(2-acetoxybenzoyl)oxybenzoate hydrochloride] | 0.37 | 0.84 | 1.82 | 3.69 | infarct volume [4, 8]: 32.98%±2.546; mortalities ([4]; high dose 60 mg/kg topical bid, deaths of animals in group): 0 of 25; neuroprotective effect on brain ischemic injury [4, 9]: good neuroprotective effect; neurological deficit scores [4, 10]: show differences significantly; infarct volume [4, 11]: 36.87%±2.265; body weight [4, 12]: increased; infarct volume [4, 13]: 35.39%±2.479
CCN(CC)CCOC(=O)c1ccccc1OC(=O)c1ccccc1O.Cl [Compound-16, 2-(diethylamino)ethyl 2-(2-hydroxybenzoyl)oxybenzoate hydrochloride] | 0.37 | 0.87 | 1.71 | 3.56 | 
CC(=O)Oc1ccc(-c2ccc(F)cc2F)cc1C(=O)OCC1CCCN1.Cl (stereo not shown) [Compound-8, (pyrrolidin-2-yl)methyl 2′,4′-difluoro-4-acetoxy-[1,1′-biphenyl]-3-carboxylate hydrochloride] | 0.45 | 0.98 | 2.02 | 4.11 | infarct volume [2, 8]: 33.53%±1.986; neuroprotective effect on brain ischemic injury [2, 9]: good neuroprotective effect; neurological deficit scores [2, 10]: show differences significantly; infarct volume [2, 11]: 37.52%±2.789; body weight [2, 12]: increased; infarct volume [2, 13]: 35.02%±2.827
CC(=O)Oc1ccc(-c2ccc(F)cc2F)cc1C(=O)O [Compound-9, 2′,4′-difluoro-4-acetoxy-[1,1′-biphenyl]-3-carboxylic acid, reference compound] | 0.000 | 0.000 | 0.001 | 0.002 | infarct volume ([2]; 60 mg/kg oral bid 14 days): 38.95%±2.176; reduction of infarct volumes [2]: little reduction
CCN(CC)CCOC(=O)c1cc(-c2ccc(F)cc2F)ccc1O.Cl [Compound-10, 2-(diethylamino)ethyl 2′,4′-difluoro-4-hydroxyl-[1,1′-biphenyl]-3-carboxylate hydrochloride] | 0.49 | 1.03 | 2.12 | 4.39 | 
O=C(O)c1cc(-c2ccc(F)cc2F)ccc1O [Compound-12, 2′,4′-difluoro-4-hydroxyl-[1,1′-biphenyl]-3-carboxylic acid, reference compound] | 0.000 | 0.001 | 0.001 | 0.003 | 
CCN(CC)CCOC(=O)c1ccccc1O.Cl [Compound-4, 2-(diethylamino)ethyl hydroxybenzoate hydrochloride] |  |  |  |  | infarct volume [3, 8]: 34.56%±2.563; neuroprotective effect on brain ischemic injury [3, 9]: good neuroprotective effect; neurological deficit scores [3, 10]: show differences significantly; infarct volume [3, 11]: 37.01%±2.053; body weight [3, 12]: increased; infarct volume [3, 13]: 35.77%±1.875
(pyrrolidin-2-yl)methyl acetoxybenzoate hydrochloride [Compound-2] |  |  |  |  | mortalities ([5]; high dose 60 mg/kg topical bid): 0 of 25; infarct volume [5, 11]: 33.11%±2.212; neuroprotective effect on brain ischemic injury ([5]; low, middle and high dose groups compared to vehicle group): good neuroprotective effect; neurological deficit scores ([5]; low, middle and high dose groups vs vehicle group): show differences significantly; body weight [5, 12]: increased; infarct volume [5, 13]: 27.03%±2.123; mortalities ([5]; middle dose 30 mg/kg topical bid): 0 of 25
CCN(CC)CCOC(=O)c1ccccc1OC(=O)c1ccccc1OC(C)=O.Cl [Compound-13, 2-(diethylamino)ethyl 2-(2-acetoxybenzoyl)oxybenzoate hydrochloride] | 0.46 | 0.97 | 1.99 | 3.89 | 
CC(=O)Oc1ccccc1C(=O)Oc1ccccc1C(=O)O [Compound-15, 2-(2-acetoxybenzoyl)oxybenzoic acid, reference compound] | 0.000 | 0.000 | 0.001 | 0.001 | infarct volume ([4]; 60 mg/kg oral bid 14 days): 39.25%±2.981; reduction of infarct volumes [4]: little reduction
Cl.O=C(OCC1CCCN1)c1cc(-c2ccc(F)cc2F)ccc1O (stereo not shown) [Compound-11, (pyrrolidin-2-yl)methyl 2′,4′-difluoro-4-hydroxyl-[1,1′-biphenyl]-3-carboxylate hydrochloride] | 0.43 | 0.99 | 2.01 | 4.05 | 
